Measurements: ChEMBL document CHEMBL1201862, “PubChem BioAssay data set” (2004)
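All cell lines were grown in 96-well plates and treated with compound for 48 hours. GI50 is the concentration that inhibits growth by half.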 The source made the active and inactive calls. Cut-off read from the data, not from the text of the source: active = GI50 up to about 1.1 µM and inactive = higher.

Key:
Assay in all cases: NCI-60 cell line screen, 48 h
A549 = test system: A549
CCRF-CEM = test system: CCRF-CEM
HCC 2998 = test system: HCC 2998
HL-60 = test system: HL-60
HOP-62 = test system: HOP-62
IGROV-1 = test system: IGROV-1
K562 = test system: K562
MOLT-4 = test system: MOLT-4
NCI-H460 = test system: NCI-H460
OVCAR-5 = test system: OVCAR-5
RPMI-8226 = test system: RPMI-8226
SF-539 = test system: SF-539
SK-MEL-28 = test system: SK-MEL-28
SK-OV-3 = test system: SK-OV-3
SNB-19 = test system: SNB-19
SNB-75 = test system: SNB-75
SW-620 = test system: SW-620
U-251 = test system: U-251
UO-31 = test system: UO-31
KM12 = test system: KM12

Measured: GI50

O=C1c2ccccc2N(O)C1(c1ccccc1)C1CCCC=C1N1CCOCC1 (stereo not given)
inactive: A549 50.4 µM | CCRF-CEM 40.7 µM | HCC 2998 > 100 µM | HL-60 50.4 µM | HOP-62 > 100 µM | IGROV-1 > 100 µM | K562 39.8 µM | MOLT-4 20.8 µM | NCI-H460 > 100 µM | OVCAR-5 > 100 µM | RPMI-8226 17.1 µM | SF-539 80.9 µM | SK-MEL-28 83.8 µM | SK-OV-3 > 100 µM | SNB-19 57.9 µM | SNB-75 18.4 µM | SW-620 > 100 µM | U-251 87.5 µM | UO-31 22.5 µM

C#CC(C)(C)OCCCCOc1cc(O)c2c(=O)c3ccccc3n(C)c2c1
inactive: A549 > 100 µM | CCRF-CEM > 100 µM | HCC 2998 66.1 µM | HL-60 > 100 µM | HOP-62 > 100 µM | IGROV-1 > 100 µM | K562 > 100 µM | KM12 97.9 µM | NCI-H460 57.5 µM | OVCAR-5 > 100 µM | RPMI-8226 > 100 µM | SF-539 > 100 µM | SK-MEL-28 > 100 µM | SK-OV-3 > 100 µM | SNB-19 > 100 µM | SNB-75 84.5 µM | SW-620 > 100 µM | U-251 > 100 µM | UO-31 > 100 µM

C=CCCN1CCc2c([nH]c3ccccc23)C1C(=O)O (stereo not given)
inactive: A549 > 100 µM | CCRF-CEM 96.2 µM | HCC 2998 > 100 µM | HL-60 93.1 µM | HOP-62 > 100 µM | IGROV-1 > 100 µM | K562 > 100 µM | KM12 > 100 µM | MOLT-4 > 100 µM | NCI-H460 > 100 µM | OVCAR-5 > 100 µM | SF-539 > 100 µM | SK-MEL-28 > 100 µM | SK-OV-3 > 100 µM | SNB-19 > 100 µM | SNB-75 26.9 µM | SW-620 > 100 µM | U-251 > 100 µM | UO-31 > 100 µM

CC(=O)OCc1c(C)c2ccccc2n1C(C)=O
inactive: A549 53 µM | CCRF-CEM 18.1 µM | HCC 2998 95.3 µM | HL-60 23.9 µM | HOP-62 63.1 µM | IGROV-1 36.8 µM | K562 23.7 µM | KM12 40.5 µM | MOLT-4 29.7 µM | OVCAR-5 > 100 µM | SF-539 38.2 µM | SK-MEL-28 > 100 µM | SK-OV-3 81.3 µM | SNB-19 > 100 µM | SNB-75 82.6 µM | SW-620 47 µM | U-251 36.3 µM | UO-31 > 100 µM

COC1(OC)CCC2C1C1CCC(OC)(OC)C21 (stereo not given)
inactive: A549 > 50 µM | CCRF-CEM > 50 µM | HCC 2998 > 50 µM | HL-60 > 50 µM | HOP-62 > 50 µM | IGROV-1 > 50 µM | K562 > 50 µM | KM12 > 50 µM | MOLT-4 > 50 µM | OVCAR-5 > 50 µM | RPMI-8226 > 50 µM | SF-539 > 50 µM | SK-MEL-28 > 50 µM | SK-OV-3 > 50 µM | SNB-19 > 50 µM | SNB-75 > 50 µM | SW-620 > 50 µM | U-251 > 50 µM | UO-31 > 50 µM

CC1=C2C3OC(=O)C(C)C3CCC2(C)C=C/C1=N\c1ccccc1 (stereo not given)
inactive: A549 > 100 µM | CCRF-CEM > 100 µM | HCC 2998 > 100 µM | HL-60 > 100 µM | HOP-62 > 100 µM | IGROV-1 > 100 µM | K562 > 100 µM | KM12 > 100 µM | MOLT-4 > 100 µM | NCI-H460 > 100 µM | OVCAR-5 > 100 µM | SF-539 > 100 µM | SK-MEL-28 > 100 µM | SK-OV-3 > 100 µM | SNB-19 > 100 µM | SNB-75 > 53.3 µM | SW-620 > 100 µM | U-251 > 100 µM | UO-31 > 100 µM

CC[C@H](O)[C@H](C)C=C1SCCCS1
inactive: A549 > 100 µM | CCRF-CEM > 100 µM | HCC 2998 > 100 µM | HL-60 34.8 µM | HOP-62 > 100 µM | IGROV-1 > 100 µM | K562 > 100 µM | KM12 > 100 µM | MOLT-4 > 100 µM | OVCAR-5 > 100 µM | RPMI-8226 > 100 µM | SK-MEL-28 > 100 µM | SK-OV-3 > 100 µM | SNB-75 > 100 µM | SW-620 > 100 µM | U-251 > 100 µM | UO-31 61.8 µM

O=C(NCCCl)SCCO
inactive: A549 > 100 µM | CCRF-CEM > 100 µM | HCC 2998 > 100 µM | HL-60 > 100 µM | HOP-62 > 100 µM | IGROV-1 > 100 µM | K562 > 100 µM | KM12 > 100 µM | MOLT-4 > 100 µM | NCI-H460 > 100 µM | OVCAR-5 > 100 µM | RPMI-8226 > 100 µM | SF-539 > 100 µM | SK-MEL-28 > 100 µM | SK-OV-3 > 100 µM | SNB-19 > 100 µM | SNB-75 > 100 µM | SW-620 > 100 µM | U-251 > 100 µM | UO-31 > 100 µM
